From US20260355171A1, “INHIBITORS AND USES THEREFOR” (priority 2022, published 2026)

Experiments:
[1] = system: primary neurons expressing SARS-CoV-2 NSP5 (AAV9-NSP5-V5); experiment: Effect on neurons in the presence of NSP5 (AAV9-NSP5-V5, immunofluorescence); assay type: cell-based, mouse; settings: 0.4, 2, 10 or 50 μM, two days
[2] = Mouse pharmacokinetics, IP administration; assay type: in vivo
Description: Pharmacokinetic parameters of compound 22 (prepared in accordance with Example 2) were determined following intravenous (IV, 3 mg/kg) and intraperitoneal (IP, 10 mg/kg) administration to male C57BL/6 mice.
IV and IP formulations were prepared separately by dissolving solid compound 22 in dimethyl sulfoxide (DMSO) prior to addition of 50 mM phosphate buffered saline (pH 6.5) using vortexing and sonication to produce a colourless solution, and giving a final DMSO concentration of 5% (v/v) for each formulation. The IV formulation was filtered through a 0.22 μm syringe filter prior to dosing, whereas the IP formulation was not filtered.
The pharmacokinetics of compound 22 was studied in non-fasted male C57BL/6 mice weighing 21.1-26.5 g. Mice had access to food and water ad libitum throughout the pre- and post-dose sampling period.
Compound 22 was dosed to mice by bolus injection into the lateral tail vein (2 mL/kg) for IV administration and by injection into the IP cavity (5 mL/kg) for IP administration. After dosing, blood samples were collected up to 24 h (n=3 mice per time point) with a maximum of three samples from each mouse via submandibular bleed (approximately 120 μL). No urine samples were collected as mice were housed in bedded cages. Blood was collected into polypropylene Eppendorf tubes containing heparin as anticoagulant. Once collected, blood samples were centrifuged immediately, supernatant plasma was removed, and stored at −80 °C until analysis by liquid chromatography-mass spectrometry (LC-MS). A summary of the bioanalytical method is included in Table 5.
Concentrations of test compound in plasma and tissue samples were determined using a liquid chromatography with tandem mass spectrometry (LCMS/MS) method validated for linearity, accuracy, precision, matrix factor and recovery (refer to Table 5).
Plasma: The plasma calibration curve was prepared by spiking aliquots of blank mouse plasma (25 μL) with test compound standard solutions (5 μL) and internal standard solution (5 μL of diazepam, 5 μg/mL in 50% acetonitrile in water). Test plasma samples (25 μL) were thawed, mixed and then spiked with internal standard solution (5 μL). Plasma protein precipitation was performed by addition of acetonitrile (3-fold volume ratio) and thorough vortex mixing. Samples were centrifuged (RCF=9391×g) for 3 minutes and the supernatant (100 μL) was collected for analysis. The analysis of blood/plasma (B/P) partitioning samples was conducted similarly as for the plasma samples, using protein precipitation with acetonitrile as described above.
The plasma concentration versus time profile was defined by the average plasma concentration at each sample time, and PK parameters were calculated using non-compartmental methods (PKSolver Version 2.0). Standard calculations for each pharmacokinetic parameter are listed below.

[3] = system: PHP.B hSyn-NSP5-V5 adeno-associated virus; experiment: Weight loss after AAV injection; assay type: in vivo, mouse; settings: 10 mg/kg daily, vs Paxlovid and vehicle; significant at day 19 to end
Description: In vivo testing was performed on 5-month-old female C57BL/6 wildtype mice injected intravenously with PHP.B hSyn-NSP5-V5 adeno-associated virus (AAV) and treated daily with compound 22 (10 mg/kg), Paxlovid (nirmatrelvir/ritonavir) (10 mg/kg nirmatrelvir: 3.33 mg/kg ritonavir) or a vehicle control (n=10 per group).
Weight loss was monitored over a 21-day period post injection with the AAV.

[4] = system: primary neurons; experiment: Cytotoxicity / neuronal cell death in the presence of NSP5 (PI/DAPI)
[5] = Unbound fraction (fu) in mouse plasma; assay type: in vitro ADME
[6] = mouse, plasma, IP 10 mg/kg, male C57BL/6 mice

Q: With NC(=O)C1CCN(c2ncccc2CNCc2cccc3[nH]ccc23)CC1 [Compound 22] as the compound, how does the “Prevention of NSP5-induced neuronal death” value [1] read?
A: The value was “prevented NSP5-induced neuronal death in a dose-dependent manner”.

Q: What about the “BA (apparent bioavailability)” value ([2]; IP 10 mg/kg, truncated AUC0-7.5 h, likely slight underestimation, 10 mg/kg, 450 min) of the same compound?
A: The value was 47.3%.

Q: What about the bioavailability at 7.5 h ([2]; mouse, plasma, ip, 10 mg/kg, truncated AUC0-7.5 h, likely slight underestimation, read-out: BA (apparent bioavailability)) of the same compound?
A: Its bioavailability at 7.5 h is 47%.

Q: What about the Cmax [2, 6] of the same compound?
A: The Cmax was 4.25 µM.

Q: What about the Tmax [2, 6] of the same compound?
A: The Tmax was 15 min.

Q: And the AUC(0-t) ([2]; mouse, plasma, IP 10 mg/kg, male C57BL/6 mice, read-out: Plasma AUC0-last)?
A: The AUC(0-t) was 2.56 µM·h.

Q: What about the “Weight loss from 17 days post injection” value [3] of the same compound?
A: The value was “weight loss was less severe”.

Q: What about the “Reduction of neuronal cell death caused by NSP5” value ([4]; 0.4, 1, 2, 10 or 50 μM, 48 hours) of the same compound?
A: The value was “selectively reduced neuronal cell death caused by NSP5”.

Q: What about the “Cell death caused by compound” value ([4]; therapeutic concentrations (nM to low μM)) of the same compound?
A: The value was “did not cause any cell death”.

Q: And the fraction unbound [5]?
A: Its fraction unbound is 0.547.
